Results taken from the NIST ThermoML archive (doi:10.1021/je0301242).
Numbers after ± are expanded uncertainties.

Experiment: excess molar enthalpy (molar enthalpy of mixing); xn = mol fraction of the nth substance listed
Settings: 323.15 K, Liquid, Flow calorimetry

COC [dimethyl ether] + CCC
3060 kPa
Settings | excess molar enthalpy [kcal/mol]
x2 = 0.0397 | 0.022 ± 0.000478
x2 = 0.0803 | 0.0428 ± 0.000717
x2 = 0.1218 | 0.0629 ± 0.000956
x2 = 0.1643 | 0.0813 ± 0.000956
x2 = 0.2076 | 0.0978 ± 0.0012
x2 = 0.252 | 0.112 ± 0.00143
x2 = 0.2974 | 0.124 ± 0.00143
x2 = 0.3439 | 0.135 ± 0.00167
x2 = 0.3914 | 0.143 ± 0.00167
x2 = 0.4401 | 0.147 ± 0.00167
x2 = 0.49 | 0.15 ± 0.00167
x2 = 0.5411 | 0.149 ± 0.00167
x2 = 0.5935 | 0.145 ± 0.00167
x2 = 0.6472 | 0.137 ± 0.00167
x2 = 0.7023 | 0.126 ± 0.00143
x2 = 0.7587 | 0.109 ± 0.00143
x2 = 0.8167 | 0.088 ± 0.0012
x2 = 0.8762 | 0.0609 ± 0.000956
x2 = 0.9373 | 0.0299 ± 0.000478

C=CC [propene] + COC
3000 kPa
Settings | excess molar enthalpy [kcal/mol]
x1 = 0.0427 | 0.00574 ± 0.000239
x1 = 0.0861 | 0.0112 ± 0.000478
x1 = 0.1301 | 0.0155 ± 0.000478
x1 = 0.1748 | 0.0201 ± 0.000478
x1 = 0.2203 | 0.0241 ± 0.000478
x1 = 0.2664 | 0.028 ± 0.000478
x1 = 0.3133 | 0.0306 ± 0.000478
x1 = 0.361 | 0.0332 ± 0.000478
x1 = 0.4095 | 0.0354 ± 0.000717
x1 = 0.4587 | 0.0368 ± 0.000717
x1 = 0.5088 | 0.0373 ± 0.000717
x1 = 0.5597 | 0.037 ± 0.000717
x1 = 0.6115 | 0.0363 ± 0.000717
x1 = 0.6641 | 0.0347 ± 0.000717
x1 = 0.7177 | 0.0318 ± 0.000478
x1 = 0.7722 | 0.0277 ± 0.000478
x1 = 0.8277 | 0.0222 ± 0.000478
x1 = 0.8841 | 0.016 ± 0.000478
x1 = 0.9415 | 0.00789 ± 0.000239
